Target: Sphingosine 1-phosphate receptor 5 (Homo sapiens, UniProt Q9H228)
Assay: In Vitro Functional Activity (Agonism) on Human S1P5 Receptors: The CHO-human-S1P5-Aeqorin assay was bought from Euroscreen, Brussels (Euroscreen, Technical dossier, Human Lysophospholid S1P5 (Edg8) receptor, DNA clone and CHO AequoScreen™ recombinant cell-line, catalog no: ES-593-A, September 2006). Human-S1P5-Aequorin cells express mitochondrial targeted apo-Aequorin. Cells have to be loaded with coelanterazine, in order to reconstitute active Aequorin. After binding of agonists to the human S1P5 receptor the intracellular calcium concentration increases and binding of calcium to the apo-Aequorin/coelenterazine complex leads to an oxidation reaction of coelenterazine, which results in the production of apo-Aequorin, coelenteramide, CO2 and light ([…]max 469 nm). This luminescent response is dependent on the agonist concentration. Luminescence is measured using the MicroBeta Jet (Perkin Elmer). Agonistic effects of compounds are expressed as pEC50. Compounds were tested at a 10 points half log concentration range, and 3 independent experiments were performed in single point's measurements.
Format: cell-based

Sequence of Sphingosine 1-phosphate receptor 5 (Q9H228 whole entry): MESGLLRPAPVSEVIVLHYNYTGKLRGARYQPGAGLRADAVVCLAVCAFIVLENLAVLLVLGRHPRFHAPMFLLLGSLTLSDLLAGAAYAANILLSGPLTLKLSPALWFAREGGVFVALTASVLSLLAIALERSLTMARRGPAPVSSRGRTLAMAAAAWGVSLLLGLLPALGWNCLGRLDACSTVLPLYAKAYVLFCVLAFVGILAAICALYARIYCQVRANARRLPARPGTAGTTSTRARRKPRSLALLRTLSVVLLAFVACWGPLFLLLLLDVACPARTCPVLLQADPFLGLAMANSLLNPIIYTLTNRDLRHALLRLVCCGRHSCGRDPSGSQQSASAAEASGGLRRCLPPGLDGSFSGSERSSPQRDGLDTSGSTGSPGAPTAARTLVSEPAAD

Row | Structure (SMILES) | EC50 [nM]
1 | O=C(O)CCN1CCCC2(COc3cc(OCc4c(Cl)cccc4C(F)(F)F)ccc32)C1 (configuration not stated) | 50.1
2 | CC(C)c1cccc(F)c1COc1ccc2c(c1)OCC21CCN(CCC(=O)O)CC1 | 50.1
